How the values were obtained:
[1] = biological target: Kappa-type opioid receptor (Cavia porcellus, UniProt P41144)
[2] = biological target: Mu-type opioid receptor (Cavia porcellus, UniProt P97266)
Sequence of Mu-type opioid receptor (P97266 whole entry): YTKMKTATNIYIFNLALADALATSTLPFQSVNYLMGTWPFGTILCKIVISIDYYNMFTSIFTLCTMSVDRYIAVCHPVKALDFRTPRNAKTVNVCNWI

Sequence of Kappa-type opioid receptor (P41144 whole entry): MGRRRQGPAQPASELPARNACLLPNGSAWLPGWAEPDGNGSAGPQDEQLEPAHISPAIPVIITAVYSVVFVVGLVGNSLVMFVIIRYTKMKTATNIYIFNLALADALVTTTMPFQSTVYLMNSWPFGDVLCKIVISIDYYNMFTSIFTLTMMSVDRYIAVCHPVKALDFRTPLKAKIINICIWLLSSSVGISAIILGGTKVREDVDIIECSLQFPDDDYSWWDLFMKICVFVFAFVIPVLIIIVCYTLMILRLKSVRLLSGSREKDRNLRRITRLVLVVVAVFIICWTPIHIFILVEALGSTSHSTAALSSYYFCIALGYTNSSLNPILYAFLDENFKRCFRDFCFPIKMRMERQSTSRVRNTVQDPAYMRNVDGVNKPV

CO[C@@]12CC[C@@]3(C[C@@H]1[C@@](C)(O)C(C)(C)C)[C@H]1Cc4ccc(O)c5c4[C@@]3(CCN1CC1CC1)[C@H]2O5 [BUPRENORPHINE] gave a Ki [1] of 2 nM and a Ki [2] of 0.57 nM.
